Experimental data reported in patent publication US20130122024A1, “NEW BINDER-DRUG CONJUGATES (ADCS) AND USE THEREOF” (Bayer Intellectual Property GmbH, priority 2011, published 2013).
Square brackets hold non-standard residues; d marks the D form. Peptide text beside a SMILES is read from it. * marks the point of attachment. Dolaproine = CO[C@@H]([C@@H]1CCCN1)[C@@H](C)C(=O)O; Dil = CC[C@H](C)[C@H](NC)[C@@H](CC(=O)O)OC; X5 = C[C@@H](N*)[C@@H](O)c1ccccc1; NMeV = CN[C@H](C(=O)O)C(C)C

Assays:
[1] = Caco-2 flux assay for cell permeability; format: in vitro ADME; details: human, Caco-2 cells, B to A
Procedure: (§1) The cell permeability of a substance can be investigated by means of in vitro testing in a flux assay using Caco-2 cells [M. D. Troutman and D. R. Thakker, Pharm. Res. 20 (8), 1210-1224 (2003)]. For this purpose, the cells were cultured for 15-16 days on 24-well filter plates. For the determination of permeation, the respective working example was applied in a HEPES buffer to the cells either apically (A) or basally (B) and incubated for 2 hours. After 0 hours and after 2 hours, samples were taken from the cis and trans compartments. The samples were separated by HPLC (Agilent 1200, Böblingen, Germany) using reverse phase columns. The HPLC system was coupled via a Turbo Ion Spray Interface to a Triple Quadropol mass spectrometer API 4000 (Applied Biosystems Applera, Darmstadt, Germany). The permeability was evaluated on the basis of a Papp value, which was calculated using the formula published by Schwab et al. [D. Schwab et al., J. Med. Chem. 46, 1716-1725 (2003)].

tubulin = assay: Fluorescence-based microtubule (tubulin) polymerization assay; format: biochemical
Procedure: Tubulin polymerization was investigated using the “Fluorescence-based Microtubule Polymerisation Assay Kit” from Cytoskeleton (Denver, Colo., USA; order number: BK011). With this assay, GTP is added to unpolymerized tubulin, allowing polymerization to take place spontaneously. The assay is based on the binding of the fluorophore 4′,6-di-amidino-2-phenylindole (DAPI) to tubulin. Free and bound DAPI can be differentiated on the basis of different emission spectra.
[…] In addition to the buffer control, paclitaxel, with a polymerization-increasing effect, and vinblastin, with a polymerization inhibiting effect, were run additionally as assay controls. Measurement was carried out using 96-well plates with a half base area. The kinetics of the tubulin polymerization were monitored in a Fluorimeter at 37° C. for 1 hour. The excitation wavelength was 355 nm, and emission was monitored at 460 nm. For the region of linear increase within the first 10 minutes, a calculation was made of the change in fluorescence per minute (ΔF/min), which represents the polymerization rate of the microtubuli. The potency of the test substances was quantified on the basis of their respective reduction of the polymerization rate.
The reduction in the tubulin polymerization rate occurs in dependence on the concentration of the test substance added.

Caco-2 cells = assay: Caco-2 flux assay for cell permeability; format: in vitro ADME; details: 2 hours, B to A
Procedure: as §1

[2] = Pharmacokinetics in the HT29 tumour model, non-transfected tumours; format: in vivo; details: after i.v. 16 mg/kg of Example 5; animals with nontransfected tumours
Procedure: Following intravenous administration of 16 mg/kg of Example 5, the plasma concentrations and tumour concentrations of Example 5 and also of potential metabolites such as, for example, of Example 64 were measured. […] In contrast, the AUC in the tumour in the nontransfected animals was about 8 times lower than in the transfected animals.
The measurement of the compound from Example 64 in plasma and tumour took place following precipitation of the proteins with methanol, by means of high-pressure liquid chromatography (HPLC) coupled to a tandem mass spectrometer (MS).
For the processing of 100 μL of plasma, it was admixed with 400 μL of methanol and 10 μL of internal standard (ISTD, 50 ng/mL in methanol) and shaken for 10 seconds. After centrifuging for 5 minutes at 16 000 g, 250 μL of supernatant were transferred to an autosampler vial, which was made up with 250 μL of ammonium acetate buffer (AAC, 10 mM, pH 6.8) and shaken again.
For the processing of a tumour, it was admixed with 4 times the amount of methanol. […] After again being shaken, the tumour sample was ready for measurement.
The measurement of both matrix samples took place, lastly, on the HPLC-coupled, atmospheric pressure ionization/tandem mass spectrometer by means of a Turbo Ion Spray Interface (TISP) on an API4000 instrument from SCIEX. The m/z transitions measured were as follows: […]

Mesothelin = Mesothelin (Homo sapiens, UniProt Q13421-3 37-598, GPI anchor); assay: cell-based or functional assay
[3] = concentration of toxophore 1 μM

## CC[C@H](C)[C@@H]([C@@H](CC(=O)N1CCC[C@H]1[C@H](OC)[C@@H](C)C(=O)N[C@H](C)[C@@H](O)c1ccccc1)OC)N(C)C(=O)[C@@H](NC(=O)[C@@H](NC)C(C)C)C(C)C [MMAE, monomethylauristatin E, reference compound] (H-[NMeV]V[Dil][Dolaproine]-X5)
[1]
  Papp B→A at 2 h: 7.3 ×10⁻⁶ cm/s

## CC[C@H](C)[C@@H]([C@@H](CC(=O)N1CCC[C@H]1[C@H](OC)[C@@H](C)C(=O)N[C@@H](Cc1c[nH]c2ccccc12)C(N)=O)OC)N(C)C(=O)[C@@H](NC(=O)[C@H](C(C)C)N(C)CCCC(=O)NNC(=O)CCCCCN1C(=O)CC(SC[C@H](N)C(=O)O)C1=O)C(C)C (stereo partly drawn) [Example 62, N-(4-{2-[6-(3-{[(2R)-2-Amino-2-carboxyethyl]sulphanyl}-2,5-dioxopyrrolidin-1-yl)hexanoyl]hydrazino}-4-oxobutyl)-N-methyl-L-valyl-N-[(3R,4S,5S)-1-{(2S)-2-[(1R,2R)-3-{[(2S)-1-amino-3-(1H-indol-3-yl)-1-oxopropan-2-yl]amino}-1-methoxy-2-methyl-3-oxopropyl]pyrrolidin-1-yl}-3-methoxy-5-methyl-1-oxoheptan-4-yl]-N-methyl-L-valinamide]
tubulin; [3]
  Tubulin polymerization in the presence of toxophore in [%]. Tubulin polymerization rate at 1 μM MMAF set at 100%: 88%
tubulin; concentration of toxophore 10 μM
  Tubulin polymerization in the presence of toxophore in [%]. Tubulin polymerization rate at 1 μM MMAF set at 100%: 25%
Caco-2 cells
  Papp (B-A): 0.2 ×10⁻⁶ cm/s

## CC[C@H](C)[C@@H]([C@@H](CC(=O)N1CCC[C@H]1[C@H](OC)[C@@H](C)C(=O)N[C@@]1(C(=O)N2CCCCO2)C[C@@H]1c1ccccc1)OC)N(C)C(=O)[C@@H](NC(=O)[C@H](C(C)C)N(C)CCCC(=O)NNC(=O)CCCCCN1C(=O)CC(SC[C@H](N)C(=O)O)C1=O)C(C)C (stereo partly drawn) [Example 64, N-(4-{2-[6-(3-{[(2R)-2-Amino-2-carboxyethyl]sulphanyl}-2,5-dioxopyrrolidin-1-yl)hexanoyl]hydrazino}-4-oxobutyl)-N-methyl-L-valyl-N-[(3R,4S,5S)-3-methoxy-1-{(2S)-2-[(1R,2R)-1-methoxy-2-methyl-3-{[(1S,2R)-1-(1,2-oxazinan-2-ylcarbonyl)-2-phenylcyclopropyl]amino}-3-oxopropyl]pyrrolidin-1-yl}-5-methyl-1-oxoheptan-4-yl]-N-methyl-L-valinamide]
tubulin; 1 μM
  reduction in the polymerization rate: 41%
tubulin; [3]
  Tubulin polymerization in the presence of toxophore in [%]. Tubulin polymerization rate at 1 μM MMAF set at 100%: 120%
Caco-2 cells
  Papp (B-A): 0.25 ×10⁻⁶ cm/s
[2]
  exposure in plasma: identical to the exposure in plasma in animals with transfected tumours

B1: Example 71 immunoconjugate (MF-Ta ADC) (antibody, human IgG1, lambda, V domains shown)
VH: QVELVQSGAEVKKPGESLKISCKGSGYSFTSYWIGWVRQAPGKGLEWMGIIDPGDSRTRYSPSFQGQVTISADKSISTAYLQWSSLKASDTAMYYCARGQLYGGTYMDGWGQGTLVTVSS
VL: DIALTQPASVSGSPGQSITISCTGTSSDIGGYNSVSWYQQHPGKAPKLMIYGVNNRPSGVSNRFSGSKSGNTASLTISGLQAEDEADYYCSSYDIESATPVFGGGTKLTVLG
modifications: auristatin linker-toxophore on cysteine sulphur
Mesothelin
  HT29 meso+ IC50 [nM] (MTT proliferation): 22 nM
